Measured values from patent US20210330744A1, “Methods and Compositions for Treating Neurodegeneration and Fibrosis” (Temple University-Of The Commonwealth System of Higher …, priority 2017, published 2021).

Key:
Assay type in all cases: cell-based, mouse
MEFs [1] = assay: α-SMA immunofluorescence (myofibroblast differentiation); conditions: wildtype MEFs, 48 hours
Protocol: For experiments that required adenoviral gene transfer, MEFs were incubated in adenovirus for 24 hours at which time the media was changed. To knockout Mat, MEFs were transduced with adenovirus encoding Cre-recombinase (Ad-Cre) or βgalactosidase (Ad-(βgal) for 24 h and experiments were performed 5 days post-infection in order to ensure sufficient time for protein turnover. For experiments using adenovirus encoding Glyco-High, Glyco-Low, or mito-R-GECO1, cells were incubated for an additional 24 hours prior to the experiment. The following adenoviruses have previously been described: NFAT-cl-GFP, Glyco-High, Glyco-Low, mito-R-GECO1 (De Windt et al., 2000; Kurland et al., 1992; Salabei et al., 2016; Zhao et al., 2011). Glyco-High and Glyco-Low adenoviruses were made and purified by Vector Labs using cDNA for a rat liver PFKFB1 isoform of phosphofructokinase 2 (PFK2)/ fructose-2,6-bisphosphatase (FBP2). […]
MEFs were seeded on coated 35-mm dishes. […] Images were acquired in the red (590ex/617em) and blue (350ex/461em) channels. α-SMA expression was assessed by quantifying fluorescence intensity and the percentage α-SMA positive cells. More than 50 cells per dish were analyzed.

MICU1 = assay: Western blot of mtCU components in WT MEFs; conditions: 12 hours after treatment
Protocol: (§1) Myofibroblast differentiation was induced using 10 ng ml^−1 recombinant mouse Transforming growth factor-β (TGFβ) or 10 μM Angiotensin II (AngII,). In all experiments, FBS was reduced to 1% 24 hours prior to and during treatment with TGFβ or AngII.
(§2) All protein samples were lysed by homogenization in RIPA buffer supplemented with phosphatase inhibitors and protease inhibitors. Samples were sonicated briefly and centrifuged at 5,000 g for 10 minutes. The supernatant was collected and used for further analysis. Protein amount was quantified using the Bradford Protein Assay and equal amounts of protein (10-50 μg) were run by electrophoresis on polyacrylamide Tris-glycine SDS gels. Gels were transferred to PVDF and membranes were blocked for 1 hour in Blocking Buffer followed by incubation with primary antibody overnight at 4° C. Membranes were washed in TBS-T 3 times for 5 minutes each and then incubated with secondary antibody for 1 hour at room temperature. After incubation with fluorescent secondary antibodies, membranes were washed in TB S-T 3 times for 5 minutes each and then imaged on a Licor Odyssey system. The following antibodies were used in the study: MCU (1:1,000), MCUb (1:250,), MICU1 (1:500,), MCUR1 (1:500), EMRE (1:250, Santa Cruz, sc-86337), VDAC (1:1,000), PDHE1α phospho 5293 (1:1,000), PDHE1α (1:1,000,), IDH3A (1:500), α-tubulin (1:1,000), ETC respiratory chain complexes (1:2,500), H3K4me3 (1:2,000), H3K9me3 (1:2,000), H3K27me3 (1:2,000), H3K4me2 (1:2,000), H3K9me2 (1:2,000), H3K27me2 (1:2,000), H3 (1:2000); and secondary antibodies: anti-mouse (1:12,000), anti-rabbit, (1:12,000), and anti-goat (1:12,000).

MEFs [2] = assay: ECAR and OCR measurements (Seahorse XF96) in MEFs
Protocol: as §1
A Seahorse Bioscience XF96 extracellular flux analyzer was employed to measure extracellular acidification rates (ECAR) and oxygen consumption rates (OCR). ECAR was measured using the Glycolytic Stress Test Kit and OCR was measured using the Miro Stress Test Kit. To evaluate ECAR, 20,000 MEFs/well were plated in XF media pH 7.4 without supplementation. […] To evaluate OCR, 20,000 MEFs/well were plated in XF media pH 7.4 supplemented with 10 mM glucose and 1 mM sodium pyruvate. […] After each experiment, protein concentration was measured and wells were normalized using the Wave software.

NFATc1 = assay: NFAT translocation assay; conditions: control cells (Ad-βgal), 24 hours
Protocol: MEFs were plated on coated 35-mm dishes and infected with Ad-NFATc1-GFP for 24 hours at which time live-cell images were taken followed by treatment with 10 ng m1^1 TGFP or 10 μM AngII for 24 hours. For live-cell imaging, cells were placed in a 37° C. heated chamber on a Carl Zeiss Axio Observer Z1 fluorescent microscope. Prior to imaging, MEFs were incubated with Hoechst 33342 to demarcate cell nuclei. Images were acquired in the green channel (490ex/525em) and blue channel (350ex/460em). NFAT localization was quantified as the nuclear/cytoplasmic ratio of GFP fluorescence. More than 50 cells per dish were analyzed.

PDH E1α = assay: Western blot of phosphorylated PDH; conditions: MEFs, 0, 24, 48, or 72 h
Protocol: as §2

Row | Compound | percentage of α-SMA positive cells (MEFs [1]) | MICU1 expression (MICU1) | basal respiration (MEFs [2]) | increase in glycolysis from baseline (MEFs [2]; at peak (TGFβ 48 hours, AngII ~12 hours)) [%] | nuclear translocation of NFATc1 (NFATc1) | ratio of p-PDH E1α/PDH (PDH E1α)
1 | COC(=O)CCC(=O)C(=O)OC [DM-αKG, dimethyl-αKG] | increased the percentage of α-SMA positive cells to the same extent as 48 hours of TGFβ treatment |  |  |  |  | 
2 | Angiotensin II (DRVYIHPF; Angiotensin-2; UniProt P01019 25-32, looked up) [AngII, pro-fibrotic agonist] |  | similarly large increase | slight decrease | 45 | induced nuclear translocation of NFATc1 | increased
